Measurements published in US10287530B2, “Surfactants based on monounsaturated fatty alcohol derivatives” (priority 2013, dated 2019).
Like-named read-outs stand apart in the source and are kept apart here.

Format: physicochemical
Conditions: for Emulsion stability, mL separation, 1 h / Emulsion stability, mL separation, 24 h: 342 ppm water; for Rating: overall, versus control
Experimental: Surfactant candidates for water soluble herbicide applications are examined as a replacement for the anionic, nonionic, or anionic/nonionic blend portion and compared to a known industry adjuvant standard for use in paraquat, a water soluble herbicide concentrate formulation. A standard dilution test is conducted whereby the concentrates are diluted in water to determine if solubility is complete.
A known industry paraquat adjuvant (2.8 g) is added and vigorously mixed for 30 s. Deionized water (8.07 g) is added, and mixing resumes for 30 s. […] The cylinder is stoppered and inverted ten times. Solubility is recorded as complete or incomplete. Cylinders are allowed to stand and the amount (in mL) and type of separation are recorded after 30 min., 1 h, 2 h, and 24 h. Results of the solubility testing appear in Table 4 below.
An eight to ten mole alkyl phenol ethoxylate surfactant (0.7 g) is added and vigorously mixed for 30 s. Test sample (0.7 g) is added and mixing resumes for 30 s. Deionized water (4.03 g) is added, and mixing resumes for 30 s.
Test sample (0.7 g) is added and vigorously mixed for 30 s. Sodium linear alkylbenzene sulfonate (“NaLAS,” 0.7 g) is added and mixing resumes for 30 s. Deionized water (4.03 g) is added, and mixing resumes for 30 s.
Test sample (1.4 g) is added and vigorously mixed for 30 s. Deionized water (4.03 g) is added, and mixing resumes for 30 s.

[1] = Adjuvant (anionic/nonionic) test sample

Row | Substance | Emulsion stability, mL separation, 1 h [1] [mL] | Emulsion stability, mL separation, 24 h [1] [mL] | Emulsion stability, mL separation, 1 h (Anionic test sample) [mL] | Emulsion stability, mL separation, 24 h (Anionic test sample) [mL] | Emulsion stability, mL separation, 1 h (Nonionic test sample) [mL] | Emulsion stability, mL separation, 24 h (Nonionic test sample) [mL] | Rating
1 | 1-Undecanol, 1EO Ether Sulfate, Sodium Salt [Sat. C11 alcohol 1EO Na sulfate] | 0 | 0.2 | 0 | 0 | 0.2 | 0.5 | good
2 | Undecylenic Alcohol, 1EO Ether Sulfate, Sodium Salt [Unsat. C11 alcohol 1EO Na sulfate] | 0 | 0.5 | 0 | 0 | 0.2 | 0.25 | good
